What was measured:
Abelmoschus esculentus [1] = assay: Phytotoxicity in Abelmoschus esculentus assessed as crop seedling injury at 0.33 kg a.i/ha after 2 weeks relative to untreated control; format: organism-based; conditions: in vivo, 336 h
Abelmoschus esculentus [2] = assay: Phytotoxicity in Abelmoschus esculentus assessed as root length at 0.99 kg a.i/ha treated to soil after 7 weeks (reference value: 2.9 +/- 0.45 mm); format: organism-based; conditions: in vivo, other, 1176 h
Talinum fruticosum = assay: Herbicidal activity against Talinum fruticosum in Abelmoschus esculentus plots assessed as weed recovery at 0.99 kg a.i/ha after 2 weeks (reference value: 60.1 +/- 0.46 %); format: functional
Synedrella nodiflora [3] = assay: Herbicidal activity against Synedrella nodiflora in Corchorus olitorius plots assessed as weed cover at 0.99 kg a.i/ha after 2 weeks (reference value: 81.7 +/- 0.43 %); format: functional
Euphorbia heterophylla [4] = assay: Herbicidal activity against Euphorbia heterophylla in Abelmoschus esculentus plots assessed as weed cover at 0.66 kg a.i/ha after 4 weeks (reference value: 22.6 +/- 0.49 %); format: functional
Commelina diffusa [5] = assay: Herbicidal activity against Commelina diffusa in Abelmoschus esculentus plots assessed as minor weed growth at 0.66 kg a.i/ha after 2 weeks; format: functional
Synedrella nodiflora [6] = assay: Herbicidal activity against Synedrella nodiflora in Abelmoschus esculentus plots assessed as weed recovery at 0.99 kg a.i/ha after 2 weeks (reference value: 60.1 +/- 0.46 %); format: functional
[7] = tested on: Rottboellia cochinchinensis; assay: Herbicidal activity against Rottboellia cochinchinensis in Abelmoschus esculentus plots assessed as weed cover at 0.33 kg a.i/ha after 7 weeks (reference value: 14.7 +/- 0.46 %); format: functional
Chromolaena odorata [8] = assay: Herbicidal activity against Chromolaena odorata in Corchorus olitorius plots assessed as weed cover at 0.99 kg a.i/ha after 7 weeks (reference value: 1.7 +/- 0.56 %); format: functional
Abelmoschus esculentus [9] = assay: Phytotoxicity in Abelmoschus esculentus assessed as seed germination at 1.32 kg a.i/ha applied as solution after 7 weeks (reference value: 85.7 +/- 0.36 %); format: organism-based; conditions: in vivo, other, 1176 h
Chromolaena odorata [10] = assay: Herbicidal activity against Chromolaena odorata in Corchorus olitorius plots assessed as minor weed growth at 0.99 kg a.i/ha after 2 weeks; format: functional
Euphorbia heterophylla [11] = assay: Herbicidal activity against Euphorbia heterophylla in Corchorus olitorius plots assessed as weed cover at 0.33 kg a.i/ha after 7 weeks (reference value: 1.7 +/- 0.56 %); format: functional
Calopogonium mucunoides [12] = assay: Herbicidal activity against Calopogonium mucunoides in Corchorus olitorius plots assessed as weed cover at 0.99 kg a.i/ha after 2 weeks (reference value: 81.7 +/- 0.43 %); format: functional
Calopogonium mucunoides [13] = assay: Herbicidal activity against Calopogonium mucunoides in Abelmoschus esculentus plots assessed as major weed growth at 0.33 kg a.i/ha after 2 weeks; format: functional
Euphorbia heterophylla [14] = assay: Herbicidal activity against Euphorbia heterophylla in Abelmoschus esculentus plots assessed as weed cover at 0.33 kg a.i/ha after 4 weeks (reference value: 22.6 +/- 0.49 %); format: functional
Asteraceae = assay: Herbicidal activity against Aspilia africana in Corchorus olitorius plots assessed as weed cover at 0.66 kg a.i/ha after 4 weeks (reference value: 20.1+/- 0.57 %); format: functional
Abelmoschus esculentus [15] = assay: Phytotoxicity in Abelmoschus esculentus assessed as seedling injury at 0.99 kg a.i/ha applied as solution after 7 weeks relative to control; format: organism-based; conditions: in vivo, other, 1176 h
Calopogonium mucunoides [16] = assay: Herbicidal activity against Calopogonium mucunoides in Abelmoschus esculentus plots assessed as weed cover at 0.33 kg a.i/ha after 7 weeks (reference value: 14.7 +/- 0.46 %); format: functional
Corchorus olitorius = assay: Phytotoxicity in Corchorus olitorius assessed as seed germination at 1.32 kg a.i/ha applied as solution after 7 weeks relative to untreated control; format: organism-based; conditions: in vivo, other, 1176 h
Calopogonium mucunoides [17] = assay: Herbicidal activity against Calopogonium mucunoides in Abelmoschus esculentus plots assessed as weed cover at 0.99 kg a.i/ha after 7 weeks (reference value: 14.7 +/- 0.46 %); format: functional
Synedrella nodiflora [18] = assay: Herbicidal activity against Synedrella nodiflora in Abelmoschus esculentus plots assessed as weed cover at 0.33 kg a.i/ha after 2 weeks (reference value: 63.5 +/- 0.29 %); format: functional
Abelmoschus esculentus [19] = assay: Phytotoxicity in Abelmoschus esculentus assessed as shoot length at 1.32 kg a.i/ha applied as solution after 7 weeks (reference value: 28.7 +/- 0.34 mm); format: organism-based; conditions: in vivo, other, 1176 h
Abelmoschus esculentus [20] = assay: Phytotoxicity in Abelmoschus esculentus assessed as seedling emergence at 0.33 kg a.i/ha treated to soil after 7 weeks (reference value: 95 +/- 0.05 %); format: organism-based; conditions: in vivo, other, 1176 h
Chromolaena odorata [21] = assay: Herbicidal activity against Chromolaena odorata in Corchorus olitorius plots assessed as weed cover at 0.33 kg a.i/ha after 7 weeks (reference value: 1.7 +/- 0.56 %); format: functional
Euphorbia heterophylla [22] = assay: Herbicidal activity against Euphorbia heterophylla in Corchorus olitorius plots assessed as weed recovery at 1.32 kg a.i/ha after 2 weeks (reference value: 78.3 +/- 0.74 %); format: functional
Mimosa pudica = assay: Herbicidal activity against Mimosa pudica in Abelmoschus esculentus plots assessed as weed cover at 0.33 kg a.i/ha after 7 weeks (reference value: 14.7 +/- 0.46 %); format: functional
Abelmoschus esculentus [23] = assay: Phytotoxicity in Abelmoschus esculentus assessed as root length at 0.66 kg a.i/ha applied as solution after 7 weeks (reference value: 23 +/- 0.34 mm); format: organism-based; conditions: in vivo, other, 1176 h
Commelina diffusa [24] = assay: Herbicidal activity against Commelina diffusa in Abelmoschus esculentus plots assessed as weed cover at 0.66 kg a.i/ha after 7 weeks (reference value: 14.7 +/- 0.46 %); format: functional
Synedrella nodiflora [25] = assay: Herbicidal activity against Synedrella nodiflora in Corchorus olitorius plots assessed as weed recovery at 0.66 kg a.i/ha after 2 weeks (reference value: 78.3 +/- 0.74 %); format: functional
Synedrella nodiflora [26] = assay: Herbicidal activity against Synedrella nodiflora in Abelmoschus esculentus plots assessed as weed cover at 1.32 kg a.i/ha after 4 weeks (reference value: 22.6 +/- 0.49 %); format: functional
Commelina diffusa [27] = assay: Herbicidal activity against Commelina diffusa in Abelmoschus esculentus plots assessed as weed recovery at 0.66 kg a.i/ha after 2 weeks (reference value: 60.1 +/- 0.46 %); format: functional
Euphorbia heterophylla [28] = assay: Herbicidal activity against Euphorbia heterophylla in Corchorus olitorius plots assessed as weed cover at 0.99 kg a.i/ha after 2 weeks (reference value: 81.7 +/- 0.43 %); format: functional
Synedrella nodiflora [29] = assay: Herbicidal activity against Synedrella nodiflora in Corchorus olitorius plots assessed as weed cover at 1.32 kg a.i/ha after 4 weeks (reference value: 20.1+/- 0.57 %); format: functional
Chromolaena odorata [30] = assay: Herbicidal activity against Chromolaena odorata in Corchorus olitorius plots assessed as major weed growth at 0.33 kg a.i/ha after 2 weeks; format: functional
Calopogonium mucunoides [31] = assay: Herbicidal activity against Calopogonium mucunoides in Corchorus olitorius plots assessed as weed recovery at 0.66 kg a.i/ha after 2 weeks (reference value: 78.3 +/- 0.74 %); format: functional
Synedrella nodiflora [32] = assay: Herbicidal activity against Synedrella nodiflora in Corchorus olitorius plots assessed as weed cover at 1.32 kg a.i/ha after 7 weeks (reference value: 1.7 +/- 0.56 %); format: functional

CCC(CC)Nc1c([N+](=O)[O-])cc(C)c(C)c1[N+](=O)[O-] [PENDIMETHALIN]
Activity (Abelmoschus esculentus [1]): 39.9%
Activity (Abelmoschus esculentus [2]): 1.1 mm
Activity (Talinum fruticosum): 36.2%
Activity (Synedrella nodiflora [3]): 51.7%
Activity (Euphorbia heterophylla [4]): 47.9%
Activity (Commelina diffusa [5]): 1 /m2
Activity (Synedrella nodiflora [6]): 36.2%
Activity [7]: 90%
Activity (Chromolaena odorata [8]): 95%
Activity (Abelmoschus esculentus [9]): 40.2%
Activity (Chromolaena odorata [10]): 1 /m2
Activity (Euphorbia heterophylla [11]): 100%
Activity (Calopogonium mucunoides [12]): 51.7%
Activity (Calopogonium mucunoides [13]): 31 /m2
Activity (Euphorbia heterophylla [14]): 53.8%
Activity (Asteraceae): 63.3%
Activity (Abelmoschus esculentus [15]): 47.9%
Activity (Calopogonium mucunoides [16]): 90%
Activity (Corchorus olitorius): 68.3%
Activity (Calopogonium mucunoides [17]): 83.9%
Activity (Synedrella nodiflora [18]): 56.8%
Activity (Abelmoschus esculentus [19]): 14.6 mm
Activity (Abelmoschus esculentus [20]): 85%
Activity (Chromolaena odorata [21]): 100%
Activity (Euphorbia heterophylla [22]): 13.3%
Activity (Mimosa pudica): 90%
Activity (Abelmoschus esculentus [23]): 11.8 mm
Activity (Commelina diffusa [24]): 90%
Activity (Synedrella nodiflora [25]): 33.3%
Activity (Synedrella nodiflora [26]): 36.2%
Activity (Commelina diffusa [27]): 47.9%
Activity (Euphorbia heterophylla [28]): 51.7%
Activity (Synedrella nodiflora [29]): 33.3%
Activity (Chromolaena odorata [30]): 31 /m2
Activity (Calopogonium mucunoides [31]): 33.3%
Activity (Synedrella nodiflora [32]): 95%

— ChEMBL document CHEMBL3044789, “Comparing weed and crop seedling response to pre-emergence pendimethalin application in Corchorus olitorius and Abelmoschus esculentus” (Crop Prot, 2006)
